According to ChEMBL document CHEMBL3885861, “Open TG-GATES”:

Species: Rattus norvegicus
Experiment: Open TG-GATES - Regimen: Daily Repeat
Format: toxicity, organism-based, Sprague-Dawley
Parameters: regimen Daily Repeat, gender Male, age 6 weeks
Conditions: in vivo, po, 15 mg/kg, route gavage, dose level Middle; for APTT / Bas / Eos / Fbg / Hb / Ht / Lym / MCH / MCHC / MCV / Mono / Neu / PT / Plat / RBC / Ret / WBC: tissue Blood; for KIDNEY_L / KIDNEY_R / KIDNEY_TOTAL: tissue Kidney; for LIVER: tissue Liver; for A/G / ALP / ALT / AST / BUN / CRE / Ca / Cl / DBIL / GLC / IP / K / LDH / Na / PL / RALB / TBIL / TC / TG / TP / gamma-GTP: tissue Plasma

In the case of `CC1=C(CC(=O)O)c2cc(F)ccc2/C1=C\c1ccc([S+](C)[O-])cc1` (configuration not stated), the TERMINAL_BW (72 h, time 3 day) is reported as 235.3 g, the APTT (72 h, time 3 day) is reported as 17.2 s and the Bas (72 h, time 3 day) is reported as 0%. It also gave an Eos (72 h, time 3 day) of 1%, a Fbg (72 h, time 3 day) of 309 mg/dL and a Hb (72 h, time 3 day) of 14.2 g/dL. For the same compound, the Ht (72 h, time 3 day) was 43%, the Lym (72 h, time 3 day) was 75.8% and the MCH (72 h, time 3 day) was 21.2 pg. The MCHC (72 h, time 3 day) was 33%, the MCV (72 h, time 3 day) was 64.3 fL and the Mono (72 h, time 3 day) was 2.6%. For the same compound, the Neu (72 h, time 3 day) was 20%, the PT (72 h, time 3 day) was 13.7 s and the Plat (72 h, time 3 day) was 120.1 x10_4/uL. It also gave an RBC (72 h, time 3 day) of 671.2 x10_4/ul, a Ret (72 h, time 3 day) of 7.1% and a WBC (72 h, time 3 day) of 90 x10_2/uL. The KIDNEY_L (72 h, time 3 day) was 1 g, the KIDNEY_R (72 h, time 3 day) was 1 g and the KIDNEY_TOTAL (72 h, time 3 day) was 2 g. The LIVER (72 h, time 3 day) was 11.3 g, the A/G (72 h, time 3 day) was 0.9 and the ALP (72 h, time 3 day) was 1549.6 IU/L. For the same compound, the ALT (72 h, time 3 day) was 44.2 IU/L, the AST (72 h, time 3 day) was 72.4 IU/L and the BUN (72 h, time 3 day) was 15.8 mg/dL. It also gave a CRE (72 h, time 3 day) of 0.2 mg/dL, a Ca (72 h, time 3 day) of 11.1 mg/dL and a Cl (72 h, time 3 day) of 106 meq/L. The DBIL (72 h, time 3 day) was 0.012 mg/dL, the GLC (72 h, time 3 day) was 185.2 mg/dL and the IP (72 h, time 3 day) was 7.3 mg/dL. For the same compound, the K (72 h, time 3 day) was 4 meq/L, the LDH (72 h, time 3 day) was 93.8 IU/L and the Na (72 h, time 3 day) was 142.8 meq/L. The PL (72 h, time 3 day) was 159 mg/dL, the RALB (72 h, time 3 day) was 2.7 g/dL and the TBIL (72 h, time 3 day) was 0.018 mg/dL. For the same compound, the TC (72 h, time 3 day) was 85.2 mg/dL, the TG (72 h, time 3 day) was 98.6 mg/dL and the TP (72 h, time 3 day) was 5.6 g/dL. It also gave a gamma-GTP (72 h, time 3 day) of 1 IU/L, a TERMINAL_BW ([…], time 7 day) of 268.9 g and a TERMINAL_BW ([…], time 14 day) of 338.3 g. For the same compound, the TERMINAL_BW ([…], time 28 day) was 411.4 g, the APTT ([…], time 7 day) was 17.1 s and the Bas ([…], time 7 day) was 0%. For the same compound, the Eos ([…], time 7 day) was 1%, the Fbg ([…], time 7 day) was 295.2 mg/dL and the Hb ([…], time 7 day) was 14.4 g/dL. It also gave a Ht ([…], time 7 day) of 42.6%, a Lym ([…], time 7 day) of 77.6% and an MCH ([…], time 7 day) of 21.2 pg. It also gave an MCHC ([…], time 7 day) of 33.8%, an MCV ([…], time 7 day) of 62.6 fL and a Mono ([…], time 7 day) of 2.4%. For the same compound, the Neu ([…], time 7 day) was 18.8%, the PT ([…], time 7 day) was 13.5 s and the Plat ([…], time 7 day) was 137.1 x10_4/uL. The RBC ([…], time 7 day) was 681.2 x10_4/ul, the Ret ([…], time 7 day) was 6.1% and the WBC ([…], time 7 day) was 102.7 x10_2/uL. It also gave an APTT ([…], time 14 day) of 18 s, a Bas ([…], time 14 day) of 0% and an Eos ([…], time 14 day) of 1%. For the same compound, the Fbg ([…], time 14 day) was 325.2 mg/dL, the Hb ([…], time 14 day) was 14.6 g/dL and the Ht ([…], time 14 day) was 42.9%. It also gave a Lym ([…], time 14 day) of 73.2%, an MCH ([…], time 14 day) of 20.5 pg and an MCHC ([…], time 14 day) of 34.1%. The MCV ([…], time 14 day) was 60 fL, the Mono ([…], time 14 day) was 2.2% and the Neu ([…], time 14 day) was 23%. For the same compound, the PT ([…], time 14 day) was 13.7 s, the Plat ([…], time 14 day) was 131.8 x10_4/uL and the RBC ([…], time 14 day) was 715.4 x10_4/ul. It also gave a Ret ([…], time 14 day) of 4.6%, a WBC ([…], time 14 day) of 104.2 x10_2/uL and an APTT ([…], time 28 day) of 20.6 s. It also gave a Bas ([…], time 28 day) of 0%, an Eos ([…], time 28 day) of 0.8% and a Fbg ([…], time 28 day) of 263.6 mg/dL. The Hb ([…], time 28 day) was 14.9 g/dL, the Ht ([…], time 28 day) was 45.8% and the Lym ([…], time 28 day) was 76%. The MCH ([…], time 28 day) was 18.9 pg, the MCHC ([…], time 28 day) was 32.6% and the MCV ([…], time 28 day) was 58 fL. It also gave a Mono ([…], time 28 day) of 2%, a Neu ([…], time 28 day) of 20.8% and a PT ([…], time 28 day) of 12.6 s. The Plat ([…], time 28 day) was 111.8 x10_4/uL, the RBC ([…], time 28 day) was 792.6 x10_4/ul and the Ret ([…], time 28 day) was 3.7%. The WBC ([…], time 28 day) was 112.4 x10_2/uL, the KIDNEY_L ([…], time 7 day) was 1.2 g and the KIDNEY_R ([…], time 7 day) was 1.1 g. It also gave a KIDNEY_TOTAL ([…], time 7 day) of 2.3 g, a KIDNEY_L ([…], time 14 day) of 1.3 g and a KIDNEY_R ([…], time 14 day) of 1.2 g. The KIDNEY_TOTAL ([…], time 14 day) was 2.5 g, the KIDNEY_L ([…], time 28 day) was 1.4 g and the KIDNEY_R ([…], time 28 day) was 1.4 g. The KIDNEY_TOTAL ([…], time 28 day) was 2.8 g, the LIVER ([…], time 7 day) was 12.6 g and the LIVER ([…], time 14 day) was 15.2 g. The LIVER ([…], time 28 day) was 17.1 g, the A/G ([…], time 7 day) was 0.9 and the ALP ([…], time 7 day) was 1603.8 IU/L. It also gave an ALT ([…], time 7 day) of 41.2 IU/L, an AST ([…], time 7 day) of 66.8 IU/L and a BUN ([…], time 7 day) of 17.2 mg/dL. It also gave a CRE ([…], time 7 day) of 0.2 mg/dL, a Ca ([…], time 7 day) of 11 mg/dL and a Cl ([…], time 7 day) of 104 meq/L. For the same compound, the DBIL ([…], time 7 day) was 0.016 mg/dL, the GLC ([…], time 7 day) was 183 mg/dL and the IP ([…], time 7 day) was 7.3 mg/dL. For the same compound, the K ([…], time 7 day) was 4.3 meq/L, the LDH ([…], time 7 day) was 87.4 IU/L and the Na ([…], time 7 day) was 141 meq/L. The PL ([…], time 7 day) was 187.6 mg/dL, the RALB ([…], time 7 day) was 2.8 g/dL and the TBIL ([…], time 7 day) was 0.016 mg/dL. It also gave a TC ([…], time 7 day) of 91.6 mg/dL, a TG ([…], time 7 day) of 171.6 mg/dL and a TP ([…], time 7 day) of 5.9 g/dL. For the same compound, the gamma-GTP ([…], time 7 day) was 1 IU/L, the A/G ([…], time 14 day) was 0.9 and the ALP ([…], time 14 day) was 1475.4 IU/L. The ALT ([…], time 14 day) was 42.6 IU/L, the AST ([…], time 14 day) was 65.6 IU/L and the BUN ([…], time 14 day) was 17.4 mg/dL. It also gave a CRE ([…], time 14 day) of 0.3 mg/dL, a Ca ([…], time 14 day) of 10.9 mg/dL and a Cl ([…], time 14 day) of 105.6 meq/L. The DBIL ([…], time 14 day) was 0.018 mg/dL, the GLC ([…], time 14 day) was 183 mg/dL and the IP ([…], time 14 day) was 6.8 mg/dL. The K ([…], time 14 day) was 3.8 meq/L, the LDH ([…], time 14 day) was 75.4 IU/L and the Na ([…], time 14 day) was 143.4 meq/L. For the same compound, the PL ([…], time 14 day) was 173.4 mg/dL, the RALB ([…], time 14 day) was 2.8 g/dL and the TBIL ([…], time 14 day) was 0.042 mg/dL. For the same compound, the TC ([…], time 14 day) was 81.4 mg/dL, the TG ([…], time 14 day) was 191 mg/dL and the TP ([…], time 14 day) was 6 g/dL. For the same compound, the gamma-GTP ([…], time 14 day) was 1 IU/L, the A/G ([…], time 28 day) was 0.8 and the ALP ([…], time 28 day) was 1137.2 IU/L. For the same compound, the ALT ([…], time 28 day) was 35.8 IU/L, the AST ([…], time 28 day) was 62 IU/L and the BUN ([…], time 28 day) was 18.2 mg/dL. It also gave a CRE ([…], time 28 day) of 0.3 mg/dL, a Ca ([…], time 28 day) of 10.7 mg/dL and a Cl ([…], time 28 day) of 103.8 meq/L. The DBIL ([…], time 28 day) was 0.008 mg/dL, the GLC ([…], time 28 day) was 178.4 mg/dL and the IP ([…], time 28 day) was 6.9 mg/dL. For the same compound, the K ([…], time 28 day) was 3.8 meq/L, the LDH ([…], time 28 day) was 64.6 IU/L and the Na ([…], time 28 day) was 142.8 meq/L. It also gave a PL ([…], time 28 day) of 153.4 mg/dL, an RALB ([…], time 28 day) of 2.8 g/dL and a TBIL ([…], time 28 day) of 0.076 mg/dL. The TC ([…], time 28 day) was 74.8 mg/dL, the TG ([…], time 28 day) was 162.8 mg/dL and the TP ([…], time 28 day) was 6.2 g/dL. It also gave a gamma-GTP ([…], time 28 day) of 1 IU/L.
